In ChEMBL document CHEMBL1136158, “Effect of the acyl groups on O-->N acyl migration in the water-soluble prodrugs of HIV-1 protease inhibitor” (Bioorg Med Chem Lett, 2003):
≈ marks a conversion by molar mass, not a printed value.

How the values were obtained:
[1] = Solubility ratio of prodrug versus parent drug; type: physicochemical
[2] = Time required for 50% release of parent drug in phosphate buffered saline (PBS) at 37 degrees Centigrade; type: ADME; settings: buffer
[3] = Dissociation constant was determined; type: physicochemical

SMILES	solubility (physchem) [µg/mL]	Solubility ratio [1]	T1/2 [2] [min]	pKa [3]
CC(C)(C)NC(=O)[C@H]1N(C(=O)[C@@H](O)[C@H](Cc2ccccc2)NC(=O)OCc2ccccc2)CSC1(C)C	47 (≈ 89.1 µM)			
CC(C)(C)NC(=O)[C@H]1N(C(=O)[C@@H](O)[C@H](Cc2ccccc2)NC(=O)c2ccc(Cl)cc2)CSC1(C)C	28 (≈ 52.6 µM)			
CC(C)(C)NC(=O)[C@H]1N(C(=O)[C@@H](O)[C@H](Cc2ccccc2)NC(=O)c2ccccc2)CSC1(C)C	120 (≈ 241 µM)			
CC(C)(C)NC(=O)[C@H]1N(C(=O)[C@@H](O)[C@H](Cc2ccccc2)NC(=O)c2ccc([N+](=O)[O-])cc2)CSC1(C)C	57 (≈ 105 µM)			
CC(C)(C)NC(=O)[C@H]1N(C(=O)[C@@H](OC(=O)c2ccc([N+](=O)[O-])cc2)[C@@H](N)Cc2ccccc2)CSC1(C)C.Cl	13000	228	2.6	
Cc1cccc(C)c1OCC(=O)O[C@H](C(=O)N1CSC(C)(C)[C@H]1C(=O)NC(C)(C)C)[C@@H](N)Cc1ccccc1.Cl	13000	8666	< 1	
CC(C)(C)NC(=O)[C@H]1N(C(=O)[C@@H](OC(=O)OCc2ccccc2)[C@@H](N)Cc2ccccc2)CSC1(C)C.Cl	21000	449	< 1	3.2
CC(C)(C)NC(=O)[C@H]1N(C(=O)[C@@H](OC(=O)c2ccc(Cl)cc2)[C@@H](N)Cc2ccccc2)CSC1(C)C.Cl	4300	154	16	
CC(C)(C)NC(=O)[C@H]1N(C(=O)[C@@H](OC(=O)Cc2ccccc2)[C@@H](N)Cc2ccccc2)CSC1(C)C.Cl	33000	340	2.2	4.31
CC(C)(C)NC(=O)[C@H]1N(C(=O)[C@@H](OC(=O)c2ccccc2)[C@@H](N)Cc2ccccc2)CSC1(C)C.Cl	15000	125	30	4.2
Cc1ccc(C(=O)O[C@H](C(=O)N2CSC(C)(C)[C@H]2C(=O)NC(C)(C)C)[C@@H](N)Cc2ccccc2)cc1.Cl	6200	155	44	
COc1ccc(C(=O)O[C@H](C(=O)N2CSC(C)(C)[C@H]2C(=O)NC(C)(C)C)[C@@H](N)Cc2ccccc2)cc1.Cl	16000	211	67	
CC(C)(C)NC(=O)[C@H]1N(C(=O)[C@@H](O)[C@H](Cc2ccccc2)NC(=O)Cc2ccccc2)CSC1(C)C	97 (≈ 190 µM)			
COc1ccc(C(=O)N[C@@H](Cc2ccccc2)[C@H](O)C(=O)N2CSC(C)(C)[C@H]2C(=O)NC(C)(C)C)cc1	76 (≈ 144 µM)			
